COC(C)(C)C [2-methoxy-2-methylpropane]
Liquid, Brillouin light scattering
Conditions	speed of sound [m/s]
303.11 K, 7000 kPa	1078.5
303.12 K, 10000 kPa	1093.4
303.13 K, 1000 kPa	1023.2
303.15 K, 2500 kPa	1035.3
303.15 K, 8500 kPa	1086.9
303.2 K, 4000 kPa	1045.4
303.2 K, 5500 kPa	1058.1
308.06 K, 2500 kPa	1018.4
308.11 K, 10000 kPa	1080
308.12 K, 4000 kPa	1025.3
308.13 K, 5500 kPa	1037.2
308.13 K, 8500 kPa	1064.6
308.23 K, 1000 kPa	1003.3
308.24 K, 7000 kPa	1052.5
313.09 K, 1000 kPa	975
313.1 K, 2500 kPa	990.3
313.13 K, 7000 kPa	1034.7
313.15 K, 4000 kPa	1007
313.17 K, 10000 kPa	1051.6
313.2 K, 5500 kPa	1018.3
313.24 K, 8500 kPa	1049
318.06 K, 8500 kPa	1020.1
318.07 K, 1000 kPa	959.3
318.18 K, 7000 kPa	1012.5
318.22 K, 4000 kPa	985.3
318.23 K, 2500 kPa	971.4
318.24 K, 5500 kPa	996.7
318.25 K, 10000 kPa	1040
323.07 K, 10000 kPa	1016.8
323.12 K, 8500 kPa	1006.1
323.14 K, 7000 kPa	987.9
323.15 K, 1000 kPa	932.5
323.18 K, 2500 kPa	947.7
323.21 K, 5500 kPa	982.2
323.25 K, 4000 kPa	964.9
328.06 K, 7000 kPa	971.9
328.08 K, 1000 kPa	917
328.11 K, 2500 kPa	926.2
328.13 K, 8500 kPa	984.6
328.14 K, 5500 kPa	963.3
328.16 K, 4000 kPa	942.5
328.19 K, 10000 kPa	991.7
333.08 K, 1000 kPa	893.5
333.08 K, 2500 kPa	904.6
333.12 K, 4000 kPa	920.6
333.18 K, 10000 kPa	978.4
333.2 K, 5500 kPa	941.5
333.21 K, 7000 kPa	949.1
333.22 K, 8500 kPa	967.6
338.09 K, 1000 kPa	867.8
338.11 K, 7000 kPa	931.3
338.11 K, 8500 kPa	941
338.16 K, 5500 kPa	922.2
338.17 K, 10000 kPa	954.4
338.22 K, 4000 kPa	898.7
338.23 K, 2500 kPa	884.4
343.15 K, 7000 kPa	911.8
343.18 K, 8500 kPa	926.4
343.19 K, 4000 kPa	883.2
343.19 K, 5500 kPa	892.8
343.2 K, 1000 kPa	845.4
343.22 K, 2500 kPa	868.6
343.24 K, 10000 kPa	941
348.1 K, 5500 kPa	874.9
348.12 K, 7000 kPa	890.7
348.16 K, 4000 kPa	858.5
348.16 K, 8500 kPa	907.4
348.17 K, 10000 kPa	915.3
348.22 K, 1000 kPa	829.7
348.22 K, 2500 kPa	844.7
353.05 K, 5500 kPa	858.5
353.1 K, 7000 kPa	868.9
353.11 K, 10000 kPa	903.3
353.2 K, 2500 kPa	825.4
353.22 K, 4000 kPa	841.4
353.23 K, 8500 kPa	889.4
353.25 K, 1000 kPa	800
358.08 K, 7000 kPa	852.1
358.09 K, 5500 kPa	835.6
358.14 K, 8500 kPa	866.9
358.15 K, 1000 kPa	779.2
358.18 K, 10000 kPa	883.2
358.19 K, 2500 kPa	802.1
358.19 K, 4000 kPa	816.3
363.06 K, 1000 kPa	761.1
363.09 K, 2500 kPa	775.4
363.09 K, 5500 kPa	811.7
363.14 K, 7000 kPa	833.6
363.18 K, 8500 kPa	844.2
363.23 K, 4000 kPa	796.3
363.24 K, 10000 kPa	863.5
368.06 K, 5500 kPa	796.6
368.08 K, 10000 kPa	844.9
368.13 K, 7000 kPa	813
368.15 K, 1000 kPa	734.3
368.16 K, 4000 kPa	777
368.21 K, 8500 kPa	831.5
368.25 K, 2500 kPa	754.9
373.07 K, 1000 kPa	713.9
373.07 K, 10000 kPa	828.1
373.11 K, 8500 kPa	811.5
373.12 K, 5500 kPa	770.2
373.16 K, 4000 kPa	753.8
373.17 K, 2500 kPa	733.6
373.24 K, 7000 kPa	791.5
378.06 K, 4000 kPa	732.9
378.07 K, 5500 kPa	751.9
378.07 K, 7000 kPa	770.5
378.13 K, 2500 kPa	711.8
378.13 K, 8500 kPa	791.5
378.22 K, 1000 kPa	691.3
378.25 K, 10000 kPa	804
383.07 K, 1000 kPa	666.2
383.08 K, 4000 kPa	713
383.12 K, 2500 kPa	690.6
383.13 K, 7000 kPa	753.8
383.15 K, 8500 kPa	769.5
383.18 K, 5500 kPa	731.2
383.21 K, 10000 kPa	789.5
388.09 K, 5500 kPa	711.4
388.16 K, 7000 kPa	730.1
388.2 K, 4000 kPa	690

Conditions	speed of sound [m/s]
303.19 K, Liquid, Brillouin Light Scattering	1024.7
308.16 K, Liquid, Brillouin Light Scattering	988.6
313.08 K, Liquid, Brillouin Light Scattering	960.4
318.19 K, Liquid, Brillouin Light Scattering	942.7
323.07 K, Liquid, Brillouin Light Scattering	912.4
328.21 K, Liquid, Brillouin Light Scattering	904.7
333.13 K, Liquid, Brillouin Light Scattering	876.8
338.07 K, Liquid, Brillouin Light Scattering	855.1
343.12 K, Liquid, Brillouin Light Scattering	826.3
348.24 K, Liquid, Brillouin Light Scattering	797.5
353.11 K, Liquid, Brillouin Light Scattering	781.5
358.22 K, Liquid, Brillouin Light Scattering	748.6
363.16 K, Liquid, Brillouin Light Scattering	727.1
368.17 K, Liquid, Brillouin Light Scattering	707.1
373.05 K, Liquid, Brillouin Light Scattering	698.9
378.05 K, Liquid, Brillouin Light Scattering	668.3
378.1 K, Gas, Brillouin light scattering	171.6
383.08 K, Liquid, Brillouin Light Scattering	646.4
388.11 K, Liquid, Brillouin Light Scattering	627.5
388.2 K, Gas, Brillouin light scattering	170.9

Reference: the NIST ThermoML archive (doi:10.1021/acs.jced.6b00202)
